The subject of experiment [1] is isolated rat pancreas (postsynaptic α2-adrenoceptors). In words: Potentiation of insulin release from isolated perfused pancreas. Conditions: 1 × 10^-6 M, 11 mM glucose; for Insulin in the perfusate, -5 min: before compound addition. Further details: species or system rat (Sprague-Dawley). How it is done: 3. Potentiation of insulin release from isolated pancreas
Samples for determination of insulin concentration in the perfusate were collected before and during 30 min after adding the studied compounds+glucose. Insulin was measured by a RIA-kit (NOVO).

In experiment [2] the target is T1, α2-adrenoceptor (Rattus norvegicus, UniProt P22909).
T1 construct: In anaesthetized rat, a standard dose of detomidine was administered intravenously; from tissue; host or cells: whole anaesthetized rat (pupil response, in vivo)
T1 sequence (P22909 1-465): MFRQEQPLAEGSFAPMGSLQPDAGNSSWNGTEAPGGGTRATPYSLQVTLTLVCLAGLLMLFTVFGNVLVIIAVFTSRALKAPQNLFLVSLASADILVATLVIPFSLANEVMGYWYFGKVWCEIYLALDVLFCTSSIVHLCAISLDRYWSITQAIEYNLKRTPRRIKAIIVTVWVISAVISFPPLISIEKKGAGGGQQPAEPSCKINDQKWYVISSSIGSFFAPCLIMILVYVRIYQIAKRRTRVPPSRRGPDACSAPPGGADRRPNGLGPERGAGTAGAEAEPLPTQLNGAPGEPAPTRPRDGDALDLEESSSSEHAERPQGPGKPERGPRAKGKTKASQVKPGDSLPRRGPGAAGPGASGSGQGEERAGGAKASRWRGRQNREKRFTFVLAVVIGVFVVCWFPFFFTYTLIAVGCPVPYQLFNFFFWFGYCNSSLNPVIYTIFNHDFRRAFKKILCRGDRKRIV
In words: Duration of the α2-blocking action (time for antagonism of detomidine mydriasis to fall by half, oral). Format: in vivo. Conditions: oral at equipotent doses, time taken for antagonism of 0,1 mg/kg detomidine mydriasis to fall by half. As for the experimental part: It is known that in the rat α2 -agonists induce dilatation of the pupil (mydriasis) which effect is transmitted via postsynaptic α2 -receptors. In anaesthetized rat, a standard dose of detomidine was administered intravenously. Thereafter increasing doses of the studied antagonist were injected intravenously and the reversal of detomidine-induced mydriasis was followed. The ED50 value of the antagonist, i.e. the dose producing a 50 per cent reversal, was determined.
The duration of the α2 -blocking action of the compounds was determined as follows: the antagonists were administered orally at eqvipotent doses to groups of 4 rats 1, 2, 4, 7 or 16 hours before induction of anaesthesia and challenge with cumulative i.v. dosing of detomidine. By calculating the percentage antagonism of the mydriatic effect of 0,1 mg/kg detomidine for each pretreatment group, a time-effect relationship was established. This in turn permitted the measurement of the time taken for the antagonist effect to fall by half.

The next experiment deals with T2, α1-adrenoceptor (Rattus norvegicus, UniProt P43140).
T2 sequence (P43140 1-466): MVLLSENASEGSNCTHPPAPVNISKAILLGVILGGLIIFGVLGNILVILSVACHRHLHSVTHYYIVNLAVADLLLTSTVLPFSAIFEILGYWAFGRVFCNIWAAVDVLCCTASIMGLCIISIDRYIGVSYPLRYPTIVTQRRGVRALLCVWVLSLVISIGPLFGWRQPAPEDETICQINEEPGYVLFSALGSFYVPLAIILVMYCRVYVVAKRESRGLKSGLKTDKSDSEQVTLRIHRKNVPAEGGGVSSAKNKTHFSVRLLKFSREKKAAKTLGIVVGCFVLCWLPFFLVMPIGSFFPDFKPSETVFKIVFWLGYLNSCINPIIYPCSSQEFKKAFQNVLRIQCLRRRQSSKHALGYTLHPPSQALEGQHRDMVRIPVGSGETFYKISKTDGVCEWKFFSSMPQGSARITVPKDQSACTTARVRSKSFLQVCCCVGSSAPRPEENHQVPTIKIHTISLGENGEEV
In words: α1-adrenoceptor antagonism, phenylephrine-induced contraction of isolated anococcygeus muscle. Conditions: vs phenylephrine, read-out: α1-antagonism (pA2 vs phenylephrine) (converted). How it is done:
2. α1 -adrenoceptor antagonism
To obtain information also on the selectivity of the antagonist between α1 - and α2 -receptors, its ability to inhibit α1 -receptors was determined by means of isolated anococcygeus muscle (rat). The reference substances were now phenylephrine, a known α1 -agonist, and prazosin, a known α1 -antagonist. To determine α1 -antagonism, muscular contraction was induced by phenylephrine and the pA2 value of the studied compound was determined (Arunlakshana & Schild, Br. J. Pharmacol. 14, 48-62, 1959).

The target in experiment [3] is T1, α2-adrenoceptor. Briefly: Reversal of detomidine-induced mydriasis in anaesthetized rat (α2-adrenoceptor antagonism). Format: in vivo. Conditions: dose producing 50 per cent reversal of detomidine-induced mydriasis; for ED50: iv.

Consider `CCC1(c2cnc[nH]2)Cc2ccccc2C1` [atipamezole, reference compound], for which, in experiment [1], the “Insulin in the perfusate, +1 min” value came out at 5.0 ng/mL; the “Insulin in the perfusate, +10 min” value came to 3.0 ng/mL; the “Insulin in the perfusate, +20 min” value is 6.3 ng/mL; the “Insulin in the perfusate, +30 min” value came out at 15.1 ng/mL. Also, the “Insulin in the perfusate, -5 min” value in experiment [1] was less than 0.1 ng/mL. Moreover, on α2-adrenoceptor [2], the “Duration of α2-antagonism” value worked out at 1.0 h. The Kb at α1-adrenoceptor is more than 10 µM.
For `CCC1(c2cn(C)cn2)Cc2ccccc2C1` [compound 1, 4-(2-ethyl-2,3-dihydro-1H-inden-2-yl)-1-methyl-1H-imidazole], on α2-adrenoceptor [3], the ED50 was determined as 0.3 mg/kg. Further, the “Duration of α2-antagonism” value on α2-adrenoceptor [2] stood at 2.0 h. At α1-adrenoceptor, the Kb is 7.94 µM.
For `CCn1cnc(C2(CC)Cc3ccccc3C2)c1` [compound 2, 1-ethyl-4-(2-ethyl-2,3-dihydro-1H-inden-2-yl)-1H-imidazole], the ED50 on α2-adrenoceptor [3] came to 0.2 mg/kg. The Kb at α1-adrenoceptor is 6.31 µM.
The matching figures for `CCCn1cnc(C2(CC)Cc3ccccc3C2)c1` [compound 3, 4-(2-ethyl-2,3-dihydro-1H-inden-2-yl)-1-n-propyl-1H-imidazole]: 0.3 mg/kg and 6.31 µM.
The matching figures for `CCC1(c2cn(Cc3ccccc3)cn2)Cc2ccccc2C1` [compound 4, 1-benzyl-4-(2-ethyl-2,3-dihydro-1H-inden-2-yl)-1H-imidazole]: 2 mg/kg and 1 µM.
`CCC1(c2cn(C)cn2)Cc2ccccc2C1=O` (stereo not drawn) [compound 5, 2-ethyl-2-(1-methyl-1H-imidazol-4-yl)-1-indanone]: the ED50 on α2-adrenoceptor [3] turned out to be 0.1 mg/kg. Also, the “Duration of α2-antagonism” value at α2-adrenoceptor [2] came to 11.0 h. The Kb on α1-adrenoceptor is more than 10 µM.
With `OCC1(c2c[nH]cn2)Cc2ccccc2C1` [compound 6, [2,3-dihydro-2-(1H-imidazol-4-yl)-1H-inden-2-yl]methanol], at α2-adrenoceptor [3], the median effective dose (ED50) came out at 0.2 mg/kg. Moreover, the Kb at α1-adrenoceptor was more than 10 µM.
For the molecule `COCC1(c2cn(C)cn2)Cc2ccccc2C1` [compound 7, 4-(2,3-dihydro-2-methoxymethyl-1H-inden-2-yl)-1-methyl-1H-imidazole], in experiment [1], the “Insulin in the perfusate, +1 min” value was determined as 26.0 ng/mL; the “Insulin in the perfusate, +10 min” value amounted to 11.5 ng/mL; the “Insulin in the perfusate, +20 min” value came to 15.9 ng/mL; the “Insulin in the perfusate, +30 min” value is 22.0 ng/mL. The “Insulin in the perfusate, -5 min” value in experiment [1] is less than 0.1 ng/mL. Moreover, the ED50 at α2-adrenoceptor [3] amounted to 0.3 mg/kg. In addition, the “Duration of α2-antagonism” value on α2-adrenoceptor [2] stood at 7.0 h. At α1-adrenoceptor, the Kb is more than 10 µM.
Regarding `CCCC1(c2cn(CC)cn2)Cc2ccccc2C1` [compound 8, 1-ethyl-4-(2,3-dihydro-2-n-propyl-1H-inden-2-yl)-1H-imidazole], the ED50 on α2-adrenoceptor [3] was determined as 0.3 mg/kg. For the same molecule, the Kb on α1-adrenoceptor is more than 10 µM.
The matching figures for `CCCC1(c2cn(C)cn2)Cc2ccccc2C1` [compound 9, 4-(2,3-dihydro-2-n-propyl-1H-inden-2-yl)-1-methyl-1H-imidazole]: 0.3 mg/kg and more than 10 µM.
Take `CCn1cnc(C2(CO)Cc3ccccc3C2)c1` [compound 10, [2-(1-ethyl-1H-imidazol-4-yl)-2,3-dihydro-1H-inden-2-yl]methanol]: the ED50 on α2-adrenoceptor [3] was 0.3 mg/kg. At α2-adrenoceptor [2], the “Duration of α2-antagonism” value is 7.0 h. In addition, the Kb at α1-adrenoceptor is more than 10 µM.
The matching figures for `CCn1cnc(C2(COC)Cc3ccccc3C2)c1` [compound 11, 1-ethyl-4-(2,3-dihydro-2-methoxymethyl-1H-inden-2-yl)-1H-imidazole]: 0.1 mg/kg, 7.0 h and more than 10 µM.
The matching figures for `CCn1cnc(C2(CC)Cc3ccccc3C2=O)c1` (stereo not drawn) [compound 12, 2-ethyl-2-(1-ethyl-1H-imidazol-4-yl)-1-indanone]: 0.2 mg/kg, 16.0 h and more than 10 µM.
As for `c1ccc2c(c1)OCC(C1=NCCN1)O2` (stereo not drawn) [idazoxan, reference compound], the “α2-antagonism (ED50 vs detomidine)” value on α2-adrenoceptor [3] (i.v.) is 0.02 mg/kg. Moreover, on α2-adrenoceptor [2], the “Duration of α2-antagonism” value was less than 1 h. Further, at α1-adrenoceptor, the Kb is 5.01 µM.
